In the supplement of paper PMC10307832:

How the values were obtained:
Assay in all cases: relative viability (nuclei count vs DMSO), 5 days (fraction); higher = more cells survive
Venetoclax + Pictilisib = compound: CC1(C)CCC(CN2CCN(c3ccc(C(=O)NS(=O)(=O)c4ccc(NCC5CCOCC5)c([N+](=O)[O-])c4)c(Oc4cnc5[nH]ccc5c4)c3)CC2)=C(c2ccc(Cl)cc2)C1 [Venetoclax] + CS(=O)(=O)N1CCN(Cc2cc3nc(-c4cccc5[nH]ncc45)nc(N4CCOCC4)c3s2)CC1 [Pictilisib] (partner 1 µM)
Outline: (§1)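 One day after seeding in 1536-well plates, lung cancer cell lines were dosed by pin tool. Dosing was either single-drug or a fixed anchor-drug dose plus five library-drug doses (not always all listed) in √10 steps. After 5 days, nuclei were stained in one fix-and-stain step and counted on 4× images, and relative viability is the nuclei count of treated wells over that of vehicle wells, given as the median of duplicate plates.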

Selumetinib + Lapatinib = compound: Cn1cnc2c(F)c(Nc3ccc(Br)cc3Cl)c(C(=O)NOCCO)cc21 [Selumetinib] + CS(=O)(=O)CCNCc1ccc(-c2ccc3ncnc(Nc4ccc(OCc5cccc(F)c5)c(Cl)c4)c3c2)o1 [Lapatinib] (partner 2 µM)
Outline: as §1

Venetoclax + Lapatinib = compound: CC1(C)CCC(CN2CCN(c3ccc(C(=O)NS(=O)(=O)c4ccc(NCC5CCOCC5)c([N+](=O)[O-])c4)c(Oc4cnc5[nH]ccc5c4)c3)CC2)=C(c2ccc(Cl)cc2)C1 [Venetoclax] + CS(=O)(=O)CCNCc1ccc(-c2ccc3ncnc(Nc4ccc(OCc5cccc(F)c5)c(Cl)c4)c3c2)o1 [Lapatinib] (partner 2 µM)
Outline: as §1

Selumetinib + Alpelisib = compound: Cn1cnc2c(F)c(Nc3ccc(Br)cc3Cl)c(C(=O)NOCCO)cc21 [Selumetinib] + Cc1nc(NC(=O)N2CCC[C@H]2C(N)=O)sc1-c1ccnc(C(C)(C)C(F)(F)F)c1 [Alpelisib] (partner 2 µM)
Outline: as §1

Row | Cell Line | relative viability (Venetoclax + Pictilisib; first compound 0.01 µM) | relative viability (Venetoclax + Pictilisib; first compound 0.03162 µM) | relative viability (Venetoclax + Pictilisib; first compound 0.1 µM) | relative viability (Venetoclax + Pictilisib; first compound 0.3162 µM) | relative viability (Venetoclax + Pictilisib; first compound 1 µM) | relative viability (Selumetinib + Lapatinib; first compound 0.02 µM) | relative viability (Selumetinib + Lapatinib; first compound 0.06325 µM) | relative viability (Selumetinib + Lapatinib; first compound 0.2 µM) | relative viability (Selumetinib + Lapatinib; first compound 0.6325 µM) | relative viability (Venetoclax + Lapatinib; first compound 0.01 µM) | relative viability (Venetoclax + Lapatinib; first compound 0.03162 µM) | relative viability (Venetoclax + Lapatinib; first compound 0.1 µM) | relative viability (Venetoclax + Lapatinib; first compound 0.3162 µM) | relative viability (Venetoclax + Lapatinib; first compound 1 µM) | relative viability (Selumetinib + Alpelisib; first compound 0.02 µM) | relative viability (Selumetinib + Alpelisib; first compound 0.06325 µM) | relative viability (Selumetinib + Alpelisib; first compound 0.2 µM) | relative viability (Selumetinib + Alpelisib; first compound 0.6325 µM)
1 | COR-L23 | 0.676 | 0.82 | 0.732 | 0.825 | 0.676 | 1.18 | 1.1 | 0.98 | 1 | 0.921 | 0.957 | 0.983 | 0.922 | 0.938 | 0.91 | 0.825 | 0.793 | 0.654
2 | ABC-1 | 0.786 | 0.778 | 0.759 | 0.71 | 0.699 | 1.22 | 1.27 | 0.967 | 1.03 | 1.24 | 1.17 | 1.1 | 1.14 | 1.13 | 0.826 | 0.743 | 0.852 | 0.643
3 | PC-3 [JPC-3] | 0.643 | 0.872 | 0.787 | 0.782 | 0.67 | 0.45 | 0.4 | 0.415 | 0.45 | 0.474 | 0.474 | 0.434 | 0.465 | 0.475 | 1.02 | 0.935 | 0.9 | 0.752
4 | A549 | 0.48 | 0.542 | 0.564 | 0.493 | 0.482 | 0.84 | 0.731 | 0.749 | 0.5 | 1.05 | 0.988 | 1.04 | 0.998 | 0.898 | 0.675 | 0.438 | 0.311 | 0.296
5 | A-427 | 0.651 | 0.809 | 0.588 | 0.834 | 0.705 | 0.98 | 0.914 | 1.09 | 1.1 | 0.911 | 1.02 | 1.05 | 1.1 | 1.13 | 1.06 | 1.05 | 0.936 | 0.817
6 | NCI-H1975 | 0.351 | 0.33 | 0.258 | 0.284 | 0.282 | 0.856 | 0.65 | 0.794 | 0.674 | 1.02 | 0.875 | 0.903 | 0.948 | 0.863 | 0.643 | 0.511 | 0.413 | 0.37
7 | LU99A | 0.321 | 0.357 | 0.362 | 0.297 | 0.319 | 1.05 | 1 | 1.02 | 0.963 | 0.865 | 1 | 0.884 | 0.885 | 0.986 | 0.551 | 0.501 | 0.489 | 0.573
8 | NCI-H1755 | 0.346 | 0.482 | 0.398 | 0.449 | 0.465 | 0.971 | 0.953 | 0.91 | 0.998 | 1.05 | 1.08 | 0.796 | 1.04 | 0.961 | 0.896 | 0.845 | 0.783 | 0.856
9 | LOU-NH91 | 0.515 | 0.565 | 0.54 | 0.523 | 0.53 | 0.759 | 0.707 | 0.758 | 0.766 | 0.757 | 0.843 | 0.737 | 0.778 | 0.75 | 0.648 | 0.6 | 0.577 | 0.586
10 | SK-LU-1 | 0.558 | 0.634 | 0.524 | 0.592 | 0.511 | 0.964 | 0.773 | 0.751 | 0.479 | 0.907 | 1.1 | 0.859 | 0.955 | 0.893 | 1.01 | 0.988 | 0.838 | 0.542
11 | BEN | 0.738 | 0.637 | 0.518 | 0.557 | 0.546 | 0.69 | 0.829 | 0.637 | 0.648 | 0.745 | 0.781 | 0.735 | 0.626 | 0.613 | 1.02 | 0.932 | 0.861 | 0.886
12 | NCI-H1734 | 0.507 | 0.508 | 0.398 | 0.513 | 0.488 | 1.12 | 1.02 | 1.09 | 1.04 | 1.1 | 0.993 | 0.925 | 0.921 | 1.07 | 0.638 | 0.66 | 0.587 | 0.596
13 | LCLC-103H | 0.686 | 0.566 | 0.635 | 0.676 | 0.619 | – | – | – | – | – | – | – | – | – | 0.851 | 0.917 | 0.841 | 0.874
14 | ChaGo-K-1 | 0.91 | 0.998 | – | 0.825 | 0.727 | – | – | – | – | – | – | – | – | – | – | – | – | –
15 | COR-L 105 | 0.409 | 0.526 | 0.367 | 0.406 | 0.468 | 0.309 | 0.3 | 0.337 | 0.366 | 0.418 | 0.384 | 0.326 | 0.355 | 0.367 | 1.29 | 0.746 | 0.767 | 0.6
16 | NCI-H2009 | 0.814 | 0.955 | 0.778 | 0.838 | 0.774 | 0.786 | 0.567 | 0.596 | 0.375 | 1.06 | 0.902 | 1.05 | 1.01 | 0.851 | 0.99 | 0.713 | 0.519 | 0.486
17 | Calu-6 | 0.801 | 0.89 | 0.879 | 0.857 | 0.882 | 1.05 | 0.853 | 0.693 | 0.439 | 1.08 | 1.13 | 0.94 | 1 | 0.97 | 0.936 | 0.613 | 0.486 | 0.346
18 | NCI-H2023 | 0.259 | 0.234 | 0.222 | 0.23 | 0.227 | 0.893 | 0.692 | 0.747 | 0.766 | 0.935 | 0.888 | 0.748 | 0.898 | 0.627 | 0.592 | 0.429 | 0.471 | 0.547
19 | NCI-H441 | 0.611 | 0.479 | 0.431 | 0.46 | 0.444 | – | – | – | – | – | – | – | – | – | 0.775 | 0.754 | 0.656 | 0.647
